Laboratory results reported in PMC11157491, “Novel Alaninamide Derivatives with Drug-like Potential for Development as Antiseizure and Antinociceptive Therapies—In Vitro and In Vivo Characterization” (ACS Chemical Neuroscience, 2024).

How the values were obtained:
PTZ-kindled mice = experiment: Behavioral tests in PTZ-kindled mice (locomotor activity, elevated plus maze, forced swim test); type: in vivo
Description: As compared to the nonkindled control group, there were no changes in locomotor activity, as well as anxiety- and depressive-like behavior in the PTZ-kindled control group.
The procedure was performed as described in detail in our earlier studies.[15],[65] […] The seizure severity was scored using the modified Racine’s scale. […] 24 h after the last PTZ injection, animals were subjected to the locomotor activity test, the elevated plus maze test, and the forced swim test according to the methods described in detail elsewhere. After behavioral tests, animals were sacrificed and the brains were rapidly removed. Hippocampi and cortices were dissected, frozen, and stored at −80 °C until the assay of determination of GABA and glutamate concentration.
Figure S1. Acute effects of compound 26 (A) and 28 (B) on grip strength in mice. Both compounds were administered i.p. at a dose of 50 mg/kg, 30 min before the test. Control animals received vehicle. Data are presented as means ± SEM of grip strength expressed in mN/g of body weight (n = 10animals). The statistical significance was evaluated by a Student's t test (GraphPad Prism 8). […]
entries in the elevated plus maze test; (B) the percentage of the time spent in the open arms in the elevated plus maze test; (C) spontaneous locomotor activity; (D) total immobility duration in the forced swim test in mice subjected to the PTZ kindling procedure. PTZ (40 mg/kg, i.p.) was given three times a week, 30 min after […]
Behavioral tests were performed 24 h after the last PTZ injection. Data are shown as means ± SEM (n = 10–15 animals). The statistical significance was evaluated by one-way ANOVA followed by the Tukey’s post hoc test: *p < 0.05, (GraphPad Prism 8). […]

[1] = test system: glutamate and GABA concentrations in the hippocampus and cortex; experiment: Glutamate and GABA concentrations in hippocampus and cortex of PTZ-kindled mice (LC-MS/MS); type: in vivo
From the text: After completion of behavioral tests, animals were sacrificed and the brains were collected for the analysis of glutamate and GABA concentrations in the hippocampus and cortex. No changes in glutamate and GABA concentrations were reported in the hippocampus (Figure 4A). However, statistically significant differences in the concentration of both glutamate and GABA (Figure 4B) were found in the cortex. The FST procedure increased cortical glutamate concentrations in this brain structure as compared to naive mice (p < 0.05), whereas PTZ-induced kindling caused a ∼30% decrease in glutamate concentrations in comparison to the nonkindled control group exposed to the FST test (p < 0.0001).
Concentrations of GABA and glutamate in the mouse prefrontal cortex and hippocampus were measured by the liquid chromatography-tandem mass spectrometry (LC-MS/MS) method. Standards of both analytes were purchased from Toronto Research Chemicals Inc. (Toronto, ON, Canada). The stock standard solutions of GABA and glutamate were prepared in methanol and deionized water, respectively, and stored at 4 °C. A series of solution mixtures of desired concentrations were prepared by suitable dilutions of the stock solutions. Before analysis, murine brains were homogenized in distilled water at the ratio of 50 μL/mg using a handheld pestle and a glass tube homogenizer (Potter–Elvehjem PTFE pestle and glass tube, Sigma-Aldrich). Homogenates were centrifuged at 8000g for 10 min at 4 °C, and the supernatant was diluted 10 times with 0.1% formic acid in MeCN. After addition of isotope-labeled GABA-d6 and glutamate-d5 (Toronto Research Chemicals Inc., Toronto, ON, Canada) as internal standards (10 μL at a concentration of 500 ng/mL), samples (10 μL) were deproteinized with 80 μL of 0.1% formic acid in MeCN by shaking for 10 min (IKA Vibrax VXR, Germany) and then centrifuged for 5 min at a speed of 8000g (Eppendorf miniSpin centrifuge). The obtained supernatants were transferred into the autosampler vials. Chromatographic separation was carried out on an XBridge HILIC analytical column (2.1 × 150 mm^2, 3.5 μm, Waters, Ireland) with the oven temperature set at 25 °C using the Excion LC AC HPLC system. The autosampler temperature was maintained at 15 °C, and a sample volume of 2 μL was injected into the LC-MS/MS system. […] The tandem mass spectrometer was operated at unit resolution in the selected reaction monitoring mode (SRM), monitoring the transition of the protonated molecular ions m/z 104–87 and m/z 104–69 for GABA and m/z 148–84 and m/z 148–102 for glutamate (the first pair was used as a quantifier and the second for the identity verification—qualifier). For isotope-labeled GABA-d6 and glutamate-d5 monitored pairs were m/z 110–93 and m/z 153–88, respectively. […]

AMPA = AMPA binding (agonist radioligand); settings: 100 μM, rat cerebral cortex
Description: (§1) Binding/functional studies were carried out commercially in Eurofins Laboratories (Poitiers, France) and Eurofins Panlabs Discovery Services Taiwan, Ltd. (New Taipei City, Taiwan) using testing procedures that were reported previously (for details, see Table S2).
(§2) Table S2. Radioligand binding and functional assays. […]
AMPA (agonist radioligand) […]
(§3) Potassium channel (hERG) […]
(§4) Assays were performed commercially in Eurofins Laboratories ( Poitiers, France) or Eurofins Panlabs Discovery Services
(§5) Taiwan, Ltd. (New Taipei City, Taiwan).

[2] = target: T1, Cav2.2 calcium ion channel (Rattus norvegicus, UniProt Q02294); experiment: Cav2.2 binding (antagonist radioligand); settings: rat cerebral cortex, read-out: % inhibition of control specific binding
T1 construct: rat cerebral cortex; tissue Eurofins (contract assay); host or cells: rat cerebral cortex
Description: as §1, §2
Cav2.2 calcium ion channel (antagonist radioligand) […]
as §3, §4, §5

GABAA transporter = experiment: GABA transporter binding (antagonist radioligand); settings: 100 μM, rat cerebral cortex
Description: as §1, §2
GABA transporter (antagonist radioligand) […]
as §3, §4, §5

GABAA ion channel = GABAA ion channel [3H]GABA binding (agonist radioligand); settings: 100 μM, rat hippocampus
Description: as §1, §2
GABAA ion channel [3H]GABA (agonist radioligand)
as §3, §4, §5

GABA transaminase = target: T2, GABA transaminase (Rattus norvegicus, UniProt P50554); experiment: GABA transaminase assay; type: biochemical; settings: rat brain, read-out: % inhibition of control specific binding
T2 construct: Eurofins (contract assay)
Description: as §1, §2, §3, §4, §5

T2 sequence (P50554 28-500): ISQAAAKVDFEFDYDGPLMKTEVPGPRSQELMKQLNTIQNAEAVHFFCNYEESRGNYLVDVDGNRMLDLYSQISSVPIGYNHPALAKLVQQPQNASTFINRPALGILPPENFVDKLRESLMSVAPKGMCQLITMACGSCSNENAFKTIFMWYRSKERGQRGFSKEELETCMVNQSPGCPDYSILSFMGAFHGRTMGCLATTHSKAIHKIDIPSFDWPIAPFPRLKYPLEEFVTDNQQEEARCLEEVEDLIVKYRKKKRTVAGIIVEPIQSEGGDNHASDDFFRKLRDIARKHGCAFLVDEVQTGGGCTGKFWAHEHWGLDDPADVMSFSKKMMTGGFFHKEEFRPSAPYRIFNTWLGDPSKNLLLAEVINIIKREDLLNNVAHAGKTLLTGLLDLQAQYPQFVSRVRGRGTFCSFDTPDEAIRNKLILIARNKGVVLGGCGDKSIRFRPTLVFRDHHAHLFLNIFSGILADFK
T1 sequence (Q02294 whole entry): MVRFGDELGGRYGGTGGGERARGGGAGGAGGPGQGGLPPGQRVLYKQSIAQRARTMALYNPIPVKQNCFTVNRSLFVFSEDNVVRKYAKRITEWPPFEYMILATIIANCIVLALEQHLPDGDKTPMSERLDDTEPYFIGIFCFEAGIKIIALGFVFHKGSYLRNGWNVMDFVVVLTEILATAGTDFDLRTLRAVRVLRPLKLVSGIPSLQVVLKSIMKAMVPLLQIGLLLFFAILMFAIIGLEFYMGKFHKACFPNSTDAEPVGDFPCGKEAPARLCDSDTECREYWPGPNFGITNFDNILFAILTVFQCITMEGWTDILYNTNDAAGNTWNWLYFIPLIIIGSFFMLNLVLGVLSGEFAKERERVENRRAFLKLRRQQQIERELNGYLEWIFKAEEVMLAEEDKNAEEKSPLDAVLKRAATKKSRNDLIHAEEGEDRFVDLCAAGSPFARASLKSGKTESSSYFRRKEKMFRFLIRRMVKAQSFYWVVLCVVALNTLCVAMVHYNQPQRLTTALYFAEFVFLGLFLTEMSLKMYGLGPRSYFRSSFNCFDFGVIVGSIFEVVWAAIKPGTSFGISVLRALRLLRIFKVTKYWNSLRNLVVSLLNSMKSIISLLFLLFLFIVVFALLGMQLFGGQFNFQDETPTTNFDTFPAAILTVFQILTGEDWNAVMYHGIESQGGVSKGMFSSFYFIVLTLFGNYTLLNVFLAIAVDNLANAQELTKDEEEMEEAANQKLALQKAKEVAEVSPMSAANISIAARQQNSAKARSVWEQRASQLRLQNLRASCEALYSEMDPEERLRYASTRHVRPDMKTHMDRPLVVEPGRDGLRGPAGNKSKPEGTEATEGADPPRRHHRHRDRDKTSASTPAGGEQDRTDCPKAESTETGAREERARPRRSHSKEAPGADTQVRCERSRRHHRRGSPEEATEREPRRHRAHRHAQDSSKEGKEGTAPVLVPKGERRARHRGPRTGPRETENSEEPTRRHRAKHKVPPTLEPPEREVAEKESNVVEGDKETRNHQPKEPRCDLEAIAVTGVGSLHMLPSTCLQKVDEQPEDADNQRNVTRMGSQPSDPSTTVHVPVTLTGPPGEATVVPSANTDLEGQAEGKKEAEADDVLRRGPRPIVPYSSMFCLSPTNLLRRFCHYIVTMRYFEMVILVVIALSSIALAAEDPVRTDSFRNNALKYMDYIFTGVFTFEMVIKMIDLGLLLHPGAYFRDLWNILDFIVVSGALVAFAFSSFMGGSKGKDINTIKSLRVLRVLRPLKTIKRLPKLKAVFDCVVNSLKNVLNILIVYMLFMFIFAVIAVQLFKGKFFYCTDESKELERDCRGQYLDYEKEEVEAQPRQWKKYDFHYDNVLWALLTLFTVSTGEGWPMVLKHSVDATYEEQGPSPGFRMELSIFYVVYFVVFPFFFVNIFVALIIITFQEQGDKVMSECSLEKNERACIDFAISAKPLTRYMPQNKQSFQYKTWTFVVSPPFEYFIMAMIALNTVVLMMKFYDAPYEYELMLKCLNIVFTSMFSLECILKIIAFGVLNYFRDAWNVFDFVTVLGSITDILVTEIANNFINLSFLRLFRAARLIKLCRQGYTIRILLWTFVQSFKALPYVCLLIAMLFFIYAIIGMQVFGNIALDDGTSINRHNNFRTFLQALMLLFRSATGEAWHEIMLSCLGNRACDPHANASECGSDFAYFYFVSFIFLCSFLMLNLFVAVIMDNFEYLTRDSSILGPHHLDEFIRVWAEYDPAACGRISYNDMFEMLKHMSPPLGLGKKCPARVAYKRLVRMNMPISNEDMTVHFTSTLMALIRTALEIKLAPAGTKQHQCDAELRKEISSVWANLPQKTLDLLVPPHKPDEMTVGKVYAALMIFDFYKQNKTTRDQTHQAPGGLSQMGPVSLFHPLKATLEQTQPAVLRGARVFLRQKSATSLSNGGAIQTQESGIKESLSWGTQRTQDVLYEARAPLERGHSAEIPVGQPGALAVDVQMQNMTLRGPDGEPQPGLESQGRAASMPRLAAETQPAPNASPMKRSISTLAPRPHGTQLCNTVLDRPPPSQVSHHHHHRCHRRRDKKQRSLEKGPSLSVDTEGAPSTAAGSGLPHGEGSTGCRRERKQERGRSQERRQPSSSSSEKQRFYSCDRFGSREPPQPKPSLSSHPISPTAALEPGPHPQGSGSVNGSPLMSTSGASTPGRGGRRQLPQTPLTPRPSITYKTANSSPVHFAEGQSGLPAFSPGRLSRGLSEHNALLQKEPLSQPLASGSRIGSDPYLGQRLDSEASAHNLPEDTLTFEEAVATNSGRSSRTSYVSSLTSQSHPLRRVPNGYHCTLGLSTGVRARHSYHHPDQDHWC
T1 sequence (P54287 whole entry partner): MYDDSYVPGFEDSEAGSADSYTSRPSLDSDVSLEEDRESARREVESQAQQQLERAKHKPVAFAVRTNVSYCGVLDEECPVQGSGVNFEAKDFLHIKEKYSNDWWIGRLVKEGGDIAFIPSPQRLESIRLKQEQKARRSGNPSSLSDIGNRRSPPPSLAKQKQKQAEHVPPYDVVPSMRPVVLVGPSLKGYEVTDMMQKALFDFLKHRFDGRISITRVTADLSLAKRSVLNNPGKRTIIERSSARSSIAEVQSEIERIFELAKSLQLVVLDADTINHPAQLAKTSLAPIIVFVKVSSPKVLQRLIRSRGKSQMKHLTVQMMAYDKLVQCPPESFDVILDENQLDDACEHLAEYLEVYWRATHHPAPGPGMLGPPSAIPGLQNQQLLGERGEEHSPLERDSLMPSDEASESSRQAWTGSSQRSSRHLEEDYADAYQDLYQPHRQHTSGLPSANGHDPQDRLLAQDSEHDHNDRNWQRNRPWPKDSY
T1 sequence (P54290 25-944 partner limits assumed): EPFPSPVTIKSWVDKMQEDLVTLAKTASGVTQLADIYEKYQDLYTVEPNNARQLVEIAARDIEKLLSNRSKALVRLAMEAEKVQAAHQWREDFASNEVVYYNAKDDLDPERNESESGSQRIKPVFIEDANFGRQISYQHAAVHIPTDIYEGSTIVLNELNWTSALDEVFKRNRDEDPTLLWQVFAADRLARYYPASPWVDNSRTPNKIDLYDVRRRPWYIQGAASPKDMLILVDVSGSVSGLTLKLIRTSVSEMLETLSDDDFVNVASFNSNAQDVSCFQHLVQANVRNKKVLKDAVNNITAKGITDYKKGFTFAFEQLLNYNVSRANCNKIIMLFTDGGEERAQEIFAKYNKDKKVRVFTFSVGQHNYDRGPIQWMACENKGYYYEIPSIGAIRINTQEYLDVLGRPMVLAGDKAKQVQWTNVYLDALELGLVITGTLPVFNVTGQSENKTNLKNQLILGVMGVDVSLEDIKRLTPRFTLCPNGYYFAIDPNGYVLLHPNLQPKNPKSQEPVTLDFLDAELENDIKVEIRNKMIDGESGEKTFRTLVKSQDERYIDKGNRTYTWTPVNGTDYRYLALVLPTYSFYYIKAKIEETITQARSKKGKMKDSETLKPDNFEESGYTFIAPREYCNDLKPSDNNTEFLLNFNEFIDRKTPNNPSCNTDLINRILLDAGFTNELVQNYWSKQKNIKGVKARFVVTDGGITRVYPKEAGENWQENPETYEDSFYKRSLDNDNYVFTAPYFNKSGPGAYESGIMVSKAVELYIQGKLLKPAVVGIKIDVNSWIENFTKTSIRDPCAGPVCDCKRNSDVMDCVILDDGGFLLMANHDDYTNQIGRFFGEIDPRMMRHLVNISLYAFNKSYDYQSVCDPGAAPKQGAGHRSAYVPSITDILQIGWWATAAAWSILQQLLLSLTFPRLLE
T1 sequence (P54290 945-1091 partner limits assumed): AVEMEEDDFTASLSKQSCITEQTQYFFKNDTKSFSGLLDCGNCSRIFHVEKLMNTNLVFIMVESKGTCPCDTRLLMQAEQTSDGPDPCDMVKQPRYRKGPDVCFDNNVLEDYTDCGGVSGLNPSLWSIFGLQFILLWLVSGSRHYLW

- locomotor activity and anxiety-related behavior (PTZ-kindled mice; repeated administration): did not affect
- % inhibition of control specific binding (AMPA): –21.0%
- inhibition at 100 µM [2]: 3.6%
- % inhibition of control specific binding (GABAA transporter): 15.0%
- % inhibition of control specific binding (GABAA ion channel): 10.0%
- inhibition at 100 µM (GABA transaminase): -1.9%
SMILES: CC(=O)NC(C)C(=O)N1CCN(c2cccc(OC(F)(F)F)c2)CC1 (stereo not drawn) [Compound 28, N-(1-oxo-1-(4-(3-(Trifluoromethoxy)phenyl)piperazin-1-yl)propan-2-yl)acetamide]
- decrease of total immobility duration in the forced swim test (PTZ-kindled mice; 10 and 20 mg/kg, vs PTZ-kindled control): ~10%
- GABA concentrations in the cortex ([1]; PTZ-kindled animals vs PTZ-kindled control): did not affect GABA concentrations
- cortical glutamate concentration (PTZ-kindling-induced decrease) ([1]; cortex, 28 at 40 mg/kg, VPA 150 mg/kg): reversed this effect
